Measurements: article PMC10590756, “Glutarate regulates T cell metabolism and anti-tumour immunity” (Nature Metabolism, 2023)

Tests used:
[1] = system: murine CD8^+ T cells; test: Cell growth and viability of murine CD8^+ T cells; assay type: cell-based; settings: 7 days
Protocol: After 7 days of culture, we assessed the abundance of CD62L^hiCD44^hi (TCM-like) T cells by flow cytometry (Fig. 1a). We additionally determined the effect of each compound on cell growth and viability (Fig. 1b and Extended Data Fig. 1a).
B16F10 cells were originally purchased from ATCC (catalogue no. CRL-6475) and genetically modified to express OVA, enhanced green fluorescent protein (GFP) and neomycin phosphotransferase. The resulting OVA expression B16F10-OVA cells were cultured in DMEM (catalogue no. 11995065, Thermo Fisher Scientific) containing 0.75 mg ml^−1 G418 sulphate (catalogue no. 10131027, Thermo Fisher Scientific). HEK 293T cells were purchased from Takara Bio (catalogue no. 632180) and cultured in DMEM. SKOV3 was purchased from ATCC (catalogue no. HTB-77) and cultured in McCoy’s 5A (Modified) Medium (catalogue no. 16600082, Thermo Fisher Scientific). Raji-GFP-Luc cells were purchased from Biocytogen (catalogue no. B-HCL-010) and cultured in Roswell Park Memorial Institute (RPMI) 1640 (catalogue no. 21875, Thermo Fisher Scientific). Jurkat cells were purchased from ATCC (catalogue no. TIB-152) and cultured in RPMI 1640. RAW 264.7 cells were purchased from ATCC (catalogue no. TIB-71) and cultured in RPMI 1640. HeLa cells were a gift from P. Lehner (University of Cambridge) and were authenticated using short tandem repeat profiling (Eurofins Genomics). HeLa cells were cultured in DMEM. MEFs were isolated from macerated embryonic day (E) 12.5–13.5 embryos. A whole litter of embryos without sex selection were used. Stable transfection with SV40 large T antigen passage 3 was used for immortalization. Cells were subcultured over 17 more passages and maintained in DMEM[63]. All media was supplemented with 10% FCS (catalogue no. 10270106, Gibco), 100 U ml^−1 penicillin and 100 µg ml^−1 streptomycin (catalogue no. P4333, Sigma-Aldrich). […] Cell number and viability was determined using the ADAM-MC Automated Cell Counter (NanoEntek), CellDrop Automated Cell Counter (DeNovix) or TC20 Automated Cell Counter (Bio-Rad Laboratories). […]

[2] = system: protein glutarylation in human CD8^+ T cells; test: Pan-lysine glutarylation western blot; assay type: cell-based
Protocol: We determined this first by undertaking whole-protein lysate western blot analyses with a pan-lysine glutarylation (K-glutarylation) antibody[36],[38]. […] Glutarylation patterns were also altered when cells were exposed to different oxygen tensions (Fig. 3c and Extended Data Fig. 3a) and when treated with DEG (Fig. 3d and Extended Data Fig. 3b). […] Since, as shown in Extended Data Fig. 1g, DEG is converted within 15 min to glutarate intracellularly, it is likely that the DEG-induced glutarylation observed after 30 min of DEG treatment is a direct result of increases in intracellular glutarate.
Cell pellets were lysed by either urea-Tris buffer (8 M urea, 50 mM Tris-HCl (pH 7.5), 150 mM β-mercaptoethanol), sonicated twice for 45 s intercalated with 1 min incubation on ice and centrifuged at 14,000g, 4 °C for 15 min or by RIPA Lysis and Extraction Buffer (catalogue no. 89900, Thermo Fisher Scientific), according to the manufacturer’s instructions. Nuclear and cytosolic fractions were prepared from cells using the NE-PER kit (catalogue no. 78833, Thermo Fisher Scientific). Histones were extracted with the Histone Extraction Kit (catalogue no. ab113476, Abcam). Proteins were separated by SDS–PAGE and transferred to polyvinylidene fluoride (PVDF) membranes. Total protein stain was obtained using non-stain protein labelling reagent (catalogue no. A44448, Thermo Fisher Scientific). […]

[3] = system: CD8^+ T cells; test: Western blot of PDHK1, phosphorylated PDHc and PDHc; assay type: cell-based, human; settings: 500 µM DEG
Protocol: Cell pellets were lysed by either urea-Tris buffer (8 M urea, 50 mM Tris-HCl (pH 7.5), 150 mM β-mercaptoethanol), sonicated twice for 45 s intercalated with 1 min incubation on ice and centrifuged at 14,000g, 4 °C for 15 min or by RIPA Lysis and Extraction Buffer (catalogue no. 89900, Thermo Fisher Scientific), according to the manufacturer’s instructions. Nuclear and cytosolic fractions were prepared from cells using the NE-PER kit (catalogue no. 78833, Thermo Fisher Scientific). Histones were extracted with the Histone Extraction Kit (catalogue no. ab113476, Abcam). Proteins were separated by SDS–PAGE and transferred to polyvinylidene fluoride (PVDF) membranes. Total protein stain was obtained using non-stain protein labelling reagent (catalogue no. A44448, Thermo Fisher Scientific). Membranes were then blocked in 5% milk prepared in PBS plus 0.05% Tween-20, incubated with primary antibodies overnight at 4 °C and horseradish peroxidase (HRP)-conjugated secondary antibodies (catalogue nos. HAF008 and HAF007, R&D Systems) for 1 h the next day. After enhanced chemiluminescence (ECL) exposure (catalogue no. GERPN2106, Sigma-Aldrich), membranes were imaged using an iBrightCL1000 (Thermo Fisher Scientific). The following primary antibodies from Cell Signaling Technology were used at a concentration of 1:1,000: anti-PDHK1 (catalogue no. 3820); anti-β-actin (catalogue no. 12262S); anti-PPIB (catalogue no. 43603); anti-OGDH (catalogue no. 26865S); anti-phospho-PDH α1 (catalogue no. 37115); anti-SIRT5 (catalogue no. 8779S); anti-H3 (catalogue no. 4499); anti-H3K4me2 (catalogue no. 9725); anti-H3K4me3 (catalogue no. 9751); anti-H3K9me2 (catalogue no. 4658); anti-H3K9me3 (catalogue no. 13969); anti-H3K27me2 (catalogue no. 9728); anti-H3K27me3 (catalogue no. 9733); anti-H3K36me2 (catalogue no. 2901); anti-H3K36me3 (catalogue no. 4909); anti-H3K79me2 (catalogue no. 5427); anti-H3K79me3 (catalogue no. 4360); anti-H3k9ac (catalogue no. 9649); anti-H3K18ac (catalogue no. 13998); and anti-H3k27ac (catalogue no. 8173). […]

Structure (SMILES): CCOC(=O)CCCC(=O)OCC [DEG, Diethyl glutarate]
- cell viability or proliferation ([1]; 400 µM): no negative effects
- cell growth ([1]; even at 1-mM concentrations): did not display any negative effects
- time of culture with DEG after which shifts in glutarylation could be detected ([2]; 500 µM DEG): 30 min
- glutarylation patterns ([2]; increasing concentrations of DEG, 7 days): altered
- PDHK1 protein levels [3]: not significantly altered
- PDHc phosphorylation levels [3]: did not observe any changes
- protein expression of the PDHc [3]: did not alter
